Assay results reported in patent US20240417428A1, “POLYPEPTIDE FOR INHIBITING TRPM8 AND USE THEREOF” (ZHEJIANG UNIVERSITY, priority 2021, published 2024).
Where a SMILES comes first, the peptide text is derived from it.

Assays:
TRPA1 = molecular target: T1, TRPA1 (Homo sapiens, UniProt O75762); test: Electrophysiological recording of TRPA1; assay type: cell-based
T1 construct: expressed in transfected cells; host or cells: HEK293T
Description: (§1) HEK293T cells were cultured in Dulbecco's modified Eagle culture medium under a 37° C., 5% CO2 environment, 10% fetal bovine serum, penicillin (100 U/mL), and streptomycin ([…]) was needed to add into the culture medium. Transient transfection was conducted by using Lipo 2000 (Invitrogen) transfection kit and following the instruction manual.
(§2) Electrophysiological experiment recordings were performed on the cells within 24˜48 h of transient transfections. Specifically, single channel electrophysiological recordings were performed within 8 h after transfection.
(§3) Measurement of the cell currents was respectively performed in the whole-cell recording mode, inside-out recording mode or outside-out recording mode with a HEKA EPC10 amplifier. In the whole cell electrophysiological recordings, glass microelectrodes made of borosilicate material were fire-polished to a original electrode resistance of about 3-6 MΩ. Serial resistance was compensated by 60%. The whole cell electrophysiological recordings were performed at ±80 mV. For single channel electrophysiological recordings, glass microelectrodes were fire-polished to a higher resistance of 6-8 MΩ2. Current signal was sampled at 10 kHz and filtered at 2.9 kHz. Membrane potential of the cell membrane would be clamped at +80 mV. All electrophysiological recordings were performed at room temperature (22° C.) (the maximum variation is 1° C.). […]

[1] = system: oxaliplatin-induced cold allodynia; test: Oxaliplatin-induced cold allodynia, acetone evaporating cold test; assay type: in vivo, mice; settings: 3.5 μg/20 μL intraplantar, day 10 after oxaliplatin
Description: Adult male CD1 mice (6-8 weeks old) were used as experimental animals for behavioral experiments and primary cultures of DRG neurons. Mice were raised in the condition of 12 h light/12 h dark of light cycle with adequate standard chow and water. All animal protocols were approved by the Institutional Animal Care and Use Committee (IACUC) of Zhejiang University.
All of mice were habituated to the behavioral testing environment for 1-to-2 hours in 2-to-3 days before the behavioral testing. Single intraperitoneal (i.p.) injection of oxaliplatin (6 mg/kg body weight) was given to generate chemotherapy-induced neuropathic pain. Neuropathic pain behaviors were tested about 10 days after oxaliplatin injection.
Acetone-induced evaporating cold test was used to assess the oxaliplatin-induced cold allodynia. 50 μL acetone was gently splashed to the hind-paw plantar of oxaliplatin-treated mice via a syringe attached with plastic tube. The time spent in withdrawing, flinching or licking the stimulated paw was recorded and blindly counted during 5 min after acetone treatment. The cold allodynia behavior of mice was respectively measured on day 10 pre- or post-treatment with oxaliplatin, Vehicle or 3.5 μg/20 μL DeC-1.2 was intraplantarly injected to assess its analgesic effect on oxaliplatin-induced allodynia.

TRPV3 = molecular target: T2, TRPV3 (Homo sapiens, UniProt Q8NET8); test: Electrophysiological recording, ligand activation of TRPV3; assay type: cell-based
T2 construct: expressed in transfected cells; host or cells: HEK293T
T2 sequence (Q8NET8 1-790): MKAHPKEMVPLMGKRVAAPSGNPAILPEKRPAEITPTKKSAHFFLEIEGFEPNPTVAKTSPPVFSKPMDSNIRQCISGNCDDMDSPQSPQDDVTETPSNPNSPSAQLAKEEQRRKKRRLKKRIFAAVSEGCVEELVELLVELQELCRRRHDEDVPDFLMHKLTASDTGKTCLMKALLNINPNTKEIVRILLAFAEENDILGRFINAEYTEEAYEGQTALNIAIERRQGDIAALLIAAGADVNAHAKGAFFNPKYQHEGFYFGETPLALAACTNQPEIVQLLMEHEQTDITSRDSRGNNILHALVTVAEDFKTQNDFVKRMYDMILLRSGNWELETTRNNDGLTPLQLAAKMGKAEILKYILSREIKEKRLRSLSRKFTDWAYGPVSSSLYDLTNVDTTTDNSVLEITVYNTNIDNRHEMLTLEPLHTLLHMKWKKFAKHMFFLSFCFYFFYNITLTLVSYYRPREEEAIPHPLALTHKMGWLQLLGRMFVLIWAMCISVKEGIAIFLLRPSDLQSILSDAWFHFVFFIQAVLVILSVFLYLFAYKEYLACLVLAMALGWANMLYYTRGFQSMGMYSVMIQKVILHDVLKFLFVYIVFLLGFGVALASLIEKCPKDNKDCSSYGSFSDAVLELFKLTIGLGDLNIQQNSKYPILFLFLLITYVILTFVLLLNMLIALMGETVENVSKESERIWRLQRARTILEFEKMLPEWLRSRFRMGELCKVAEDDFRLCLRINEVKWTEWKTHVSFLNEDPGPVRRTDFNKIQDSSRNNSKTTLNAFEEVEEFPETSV
Description: as §1, §2, §3

T1 sequence (O75762 whole entry, species assumed): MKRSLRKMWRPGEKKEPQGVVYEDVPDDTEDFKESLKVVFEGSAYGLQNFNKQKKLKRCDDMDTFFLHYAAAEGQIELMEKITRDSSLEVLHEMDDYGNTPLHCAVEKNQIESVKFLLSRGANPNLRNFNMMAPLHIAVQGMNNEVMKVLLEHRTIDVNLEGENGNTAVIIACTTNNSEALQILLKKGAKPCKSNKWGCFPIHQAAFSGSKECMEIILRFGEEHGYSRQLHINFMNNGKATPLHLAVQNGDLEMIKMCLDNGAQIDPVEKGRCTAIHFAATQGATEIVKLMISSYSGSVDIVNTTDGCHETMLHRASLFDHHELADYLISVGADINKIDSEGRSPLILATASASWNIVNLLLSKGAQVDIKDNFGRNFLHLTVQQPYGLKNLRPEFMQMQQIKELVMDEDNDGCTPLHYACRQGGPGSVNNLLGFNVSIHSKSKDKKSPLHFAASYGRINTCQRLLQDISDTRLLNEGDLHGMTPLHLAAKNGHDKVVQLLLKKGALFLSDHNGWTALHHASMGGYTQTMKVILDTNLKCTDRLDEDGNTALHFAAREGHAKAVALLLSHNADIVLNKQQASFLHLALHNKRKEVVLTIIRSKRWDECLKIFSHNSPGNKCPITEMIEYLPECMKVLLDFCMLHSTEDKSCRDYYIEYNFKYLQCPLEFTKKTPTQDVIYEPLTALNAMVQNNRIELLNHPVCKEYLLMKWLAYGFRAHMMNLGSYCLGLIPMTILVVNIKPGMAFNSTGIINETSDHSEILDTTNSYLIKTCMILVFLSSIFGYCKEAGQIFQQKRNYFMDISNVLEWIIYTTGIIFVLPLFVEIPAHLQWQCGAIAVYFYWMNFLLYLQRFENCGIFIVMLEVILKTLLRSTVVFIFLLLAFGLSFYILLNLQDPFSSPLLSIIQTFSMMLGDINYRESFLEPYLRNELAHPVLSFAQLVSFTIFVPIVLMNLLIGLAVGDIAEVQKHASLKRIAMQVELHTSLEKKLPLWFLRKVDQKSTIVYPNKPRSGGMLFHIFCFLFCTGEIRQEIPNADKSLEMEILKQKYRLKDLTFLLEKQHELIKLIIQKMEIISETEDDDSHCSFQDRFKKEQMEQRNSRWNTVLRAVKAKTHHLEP

In the case of C[C@@H]1NC(=O)[C@H](CCCNC(=N)N)NC(=O)[C@H](CC(=O)O)NC(=O)[C@H](CCCNC(=N)N)NC(=O)[C@H](CCCNC(=N)N)NC(=O)[C@@H](N)CSSC[C@@H](C(=O)O)NC(=O)[C@H](CCCNC(=N)N)NC(=O)[C@H](CCC(N)=O)NC(=O)[C@H](CCCNC(=N)N)NC(=O)[C@H](Cc2ccc(O)cc2)NC(=O)[C@H](Cc2c[nH]cn2)NC(=O)[C@H](CCCNC(=N)N)NC1=O [DeC-1.2, CRRDRARHYRQRC] (HELM PEPTIDE1{C.R.R.D.R.A.R.H.Y.R.Q.R.C}$PEPTIDE1,PEPTIDE1,1:R3-13:R3$$$V2.0; N-terminus and C-terminus assumed), the IC50 (TRPA1) is reported as greater than 100 µM, the “inhibition of TRPA1” value (TRPA1) is reported as “none of the TRP channels and Nav channels were inhibited” and the “cold pain behavior induced by acetone evaporation (acetone score)” value [1] is reported as “significantly improved the cold pain behavior”. For the same compound, the IC50 (TRPV3) was greater than 100 µM and the “inhibition of ligand activation of TRPV3” value (TRPV3; DeC-1.2 5 μM) was “failed to inhibit”.
